Measured values as given in patent US10364245B2 (CHIESI FARMACEUTICI S.p.A., priority 2017, dated 2019).
Counter-ions that a name gives are not always drawn.

Assays:
p38 alpha = target: T1, p38 alpha (Homo sapiens, UniProt Q16539); experiment: P38 alpha enzyme inhibition assay (Alphascreen kinase activity assay); format: biochemical; conditions: 100 pM p38 alpha, 2 hours preincubation at 25° C., 250 μM ATP, ATF-2 fusion protein; read-out: p38α inhibition
T1 construct: purchased Invitrogen PV3304
Method in brief: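 100 pM p38 alpha preincubated 2 h at 25 °C with compound and 0.3 μg/ml ATF-2 fusion substrate (HEPES pH 7.5, MgCl2, 1% DMSO). Reaction started with 250 μM ATP, run 1 h at 25 °C, stopped with EDTA; phospho-ATF2 detected by AlphaScreen luminescence. IC50 from concentration-response curves.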

[1] = system: Peripheral Blood Mononuclear Cells (PBMCs), TNFα release; experiment: LPS-stimulated PBMC TNFα release assay; format: cell-based; conditions: human PBMC, LPS (10 ng/ml), 18 h, compound 1 h before LPS; read-out: LPS-stimulated PBMC TNFα release inhibition
Method: LPS-Stimulated PBMC TNFα Release Assay
Peripheral Blood Mononuclear Cells (PBMCs) were isolated from healthy human volunteer blood using a standard density gradient centrifugation technique. Citrated blood was placed onto Histopaque™ and centrifuged. The PBMCs were removed from the density gradient interface and washed in phosphate buffered saline (PBS). The PBMCs were suspended in RPMI 1640 medium (without serum), dispensed into a 96-well plate and incubated at 37° C. for 3 h in a humidified incubator. After incubation, the medium was replaced (with medium containing 1% foetal bovine serum) and the plate incubated at 37° C., for 1 h, in the presence of test compound or the appropriate vehicle. LPS (10 ng/ml), or an appropriate vehicle control, was then added to the cells and the plate returned to the incubator for 18 h. Cell-free supernatants were removed and assayed for TNFα levels using MSD plates on the Sector Imager 6000 (MesoScale).
A dose response curve to each test compound was performed and the effect of compound in each experiment was expressed as a percentage inhibition of the control TNFα release. Dose response curves were plotted and compound potency (IC50) was determined. Compounds were tested in at least three separate experiments.

T1 sequence (Q16539 whole entry, the tested form may be a part): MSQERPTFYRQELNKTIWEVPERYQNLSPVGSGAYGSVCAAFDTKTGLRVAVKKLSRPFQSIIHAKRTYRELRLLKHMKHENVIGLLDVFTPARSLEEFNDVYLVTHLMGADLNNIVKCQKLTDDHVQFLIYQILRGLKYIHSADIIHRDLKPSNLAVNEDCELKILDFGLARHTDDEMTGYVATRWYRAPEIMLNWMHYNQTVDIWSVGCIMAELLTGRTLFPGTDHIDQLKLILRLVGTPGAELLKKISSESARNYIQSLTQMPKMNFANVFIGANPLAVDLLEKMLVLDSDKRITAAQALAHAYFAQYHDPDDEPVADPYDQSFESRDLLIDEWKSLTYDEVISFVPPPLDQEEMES

`CC(C)(C)c1cc(NC(=O)N[C@H]2CC[C@@H](Oc3ccc4nnc(C(C)(C)C)n4c3)c3ccccc32)nc(C(=O)NCCN2CC(O)C2)n1` [Example 78, 4-(tert-butyl)-6-(3-((1S,4R)-4-((3-(tert-butyl)-[1,2,4]triazolo[4,3-a]pyridin-6-yl)oxy)-1,2,3,4-tetrahydronaphthalen-1-yl)ureido)-N-(2-(3-hydroxyazetidin-1-yl)ethyl)pyrimidine-2-carboxamide] showed an IC50 (p38 alpha) of less than 1 nM and an IC50 [1] greater than 5 nM.
Work on `CN1CCC[C@@]1(C)c1nnc2ccc(O[C@@H]3CC[C@H](NC(=O)Nc4cc(NS(C)(=O)=O)nc(C(C)(C)C)c4)c4ccccc43)cn12` [Example 212, N-(6-(tert-Butyl)-4-(3-((1S,4R)-4-((3-((S)-1,2-dimethylpyrrolidin-2-yl)-[1,2,4]triazolo[4,3-a]pyridin-6-yl)oxy)-1,2,3,4-tetrahydronaphthalen-1-yl)ureido)pyridin-2-yl)methanesulfonamide] yielded an IC50 (p38 alpha) of less than 1 nM and an IC50 [1] of 1 to 5 nM.
For `COC1CN(CCNC(=O)c2nc(NC(=O)N[C@H]3CC[C@@H](Oc4ccc5nnc(C(C)(C)C)n5c4)c4ccccc43)cc(C(C)(C)C)n2)C1` [Example 104, 4-(tert-butyl)-6-(3-((1S,4R)-4-((3-(tert-butyl)-[1,2,4]triazolo[4,3-a]pyridin-6-yl)oxy)-1,2,3,4-tetrahydronaphthalen-1-yl)ureido)-N-(2-(3-methoxyazetidin-1-yl)ethyl)pyrimidine-2-carboxamide], the IC50 (p38 alpha) was 1 to 10 nM and the IC50 [1] was less than 1 nM.
For `CCS(=O)(=O)Nc1cc(NC(=O)N[C@H]2CC[C@@H](Oc3ccc4nnc([C@]5(C)CCCN5C)n4c3)c3ccccc32)cc(C(C)(C)C)n1` [Example 213, N-(6-(tert-Butyl)-4-(3-((1S,4R)-4-((3-((S)-1,2-dimethylpyrrolidin-2-yl)-[1,2,4]triazolo[4,3-a]pyridin-6-yl)oxy)-1,2,3,4-tetrahydronaphthalen-1-yl)ureido)pyridin-2-yl)ethanesulfonamide], the IC50 (p38 alpha) was less than 1 nM and the IC50 [1] was 1 to 5 nM.
`CC(C)(C)c1cc(NC(=O)N[C@H]2CC[C@@H](Oc3ccc4nnc(C5(C)CCCC5)n4c3)c3ccccc32)nc(C(=O)NCCN2CCOCC2)n1` [Example 25, 4-(tert-Butyl)-6-(3-((1S,4R)-4-((3-(1-methylcyclopentyl)-[1,2,4]triazolo[4,3-a]pyridin-6-yl)oxy)-1,2,3,4-tetrahydronaphthalen-1-yl)ureido)-N-(2-morpholinoethyl)pyrimidine-2-carboxamide] gave an IC50 (p38 alpha) of less than 1 nM and an IC50 [1] of less than 1 nM.
Work on `COCC(C)(C)c1nnc2ccc(O[C@@H]3CC[C@H](NC(=O)Nc4cc(C(=O)NCC(C)(C)N(C)C)nc(C(C)(C)C)c4)c4ccccc43)cn12` [Example 196, 6-(tert-butyl)-N-(2-(dimethylamino)-2-methylpropyl)-4-(3-((1S,4R)-4-((3-(1-methoxy-2-methylpropan-2-yl)-[1,2,4]triazolo[4,3-a]pyridin-6-yl)oxy)-1,2,3,4-tetrahydronaphthalen-1-yl)ureido)picolinamide] yielded an IC50 (p38 alpha) of 1 to 10 nM and an IC50 [1] greater than 5 nM.
With `COC1CN(CCNC(=O)c2cc(C(C)(C)C)cc(NC(=O)N[C@H]3CC[C@@H](Oc4ccc5nnc(C(C)(C)C)n5c4)c4ccccc43)n2)C1` [Example 210, 4-(tert-butyl)-6-(3-((1S,4R)-4-((3-(tert-butyl)-[1,2,4]triazolo[4,3-a]pyridin-6-yl)oxy)-1,2,3,4-tetrahydronaphthalen-1-yl)ureido)-N-(2-(3-methoxyazetidin-1-yl)ethyl)picolinamide formate salt] the IC50 (p38 alpha) was less than 1 nM and the IC50 [1] was 1 to 5 nM.
`CN1CC[C@@H](NC(=O)c2nc(NC(=O)N[C@H]3CC[C@@H](Oc4ccc5nnc(C(C)(C)C)n5c4)c4ccccc43)cc(C(C)(C)C)n2)C1` [Example 129, 4-(tert-butyl)-6-(3-((1S,4R)-4-((3-(tert-butyl)-[1,2,4]triazolo[4,3-a]pyridin-6-yl)oxy)-1,2,3,4-tetrahydronaphthalen-1-yl)ureido)-N-((R)-1-methylpyrrolidin-3-yl)pyrimidine-2-carboxamide] was tested, and the IC50 (p38 alpha) was less than 1 nM and the IC50 [1] was greater than 5 nM.
